Results on eleven compounds are retold here after patent US20260116910A1, “POLYCYCLIC COMPOUNDS AND METHODS THEREOF” (HEPAITECH (BEIJING) BIOPHARMA TECHNOLOGY CO., LTD., priority 2021, published 2026).

Some results are limits rather than exact numbers.

For one test, the target named is T1, human FXR (NR1H4) (Homo sapiens, UniProt Q96RI1).
T1 sequence (Q96RI1 1-476 isoform Q96RI1-1): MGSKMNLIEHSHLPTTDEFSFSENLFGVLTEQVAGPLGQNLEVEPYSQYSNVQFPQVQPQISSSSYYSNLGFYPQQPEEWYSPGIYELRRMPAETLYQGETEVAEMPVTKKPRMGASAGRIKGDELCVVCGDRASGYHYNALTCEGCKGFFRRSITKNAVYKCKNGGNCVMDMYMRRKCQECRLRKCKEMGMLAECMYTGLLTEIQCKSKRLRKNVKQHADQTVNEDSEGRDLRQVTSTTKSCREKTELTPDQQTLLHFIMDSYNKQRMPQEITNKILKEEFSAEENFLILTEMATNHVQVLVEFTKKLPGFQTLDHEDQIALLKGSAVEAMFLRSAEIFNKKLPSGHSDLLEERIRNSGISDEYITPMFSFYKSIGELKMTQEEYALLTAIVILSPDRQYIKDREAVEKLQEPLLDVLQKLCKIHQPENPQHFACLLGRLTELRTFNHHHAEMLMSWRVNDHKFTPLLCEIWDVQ
Nature of the test: Human FXR (NR1H4) agonist assessment, FXRE-NanoLuc reporter in HEK293T cells. It counts as cell-based. The conditions noted are these: FXR activation, HEK293T FXRE-NanoLuc reporter, 24 hr; for EC50: read-out: EC50. Put shortly: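 Read-out was NanoLuc luminescence in culture medium, measured 5 min after adding coelenterazine. Cells were HEK293T stably carrying human FXR and an FXRE reporter, exposed to compound for 24 hr at 37 °C. Vehicle was 0.01% DMSO. EC50 was obtained from sigmoid fits of gradient dilutions.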

Another test addresses MRGPRX4 (Homo sapiens, UniProt Q96LA9). Nature of the test: MRGPRX4 activation, Fluo-8 Ca2+ FLIPR assay in HEK293T cells stably expressing MRGPRX4. It counts as cell-based. The arrangement: key to MRGPRX4 activation, Average / MRGPRX4 activation, Ave.: fluorescence change dF/F0. The following applies: for EC50: MRGPRX4 activation, Ca2+ fluorescence, no activation in tested range reported as III, read-out: Activity (EC50 μM). The essentials:
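Response measured as dF/F0: 30 s baseline, then 150 s after compound addition on FLIPR Tetra, in HHBS after 40-60 min room-temperature loading with 2 μM Fluo-8 AM.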

Where [1] appears, read: E3-6-2, 1st of 6 concentration columns (head not in rows shown).
Where [2] appears, read: E3-6-2, 3rd of 6 concentration columns (head not in rows shown).
The mark [3] stands for this setting: E3-6-2, 6th of 6 concentration columns (head not in rows shown).
Setting [4] is: E3-6-2, concentration not given.

Chain of MRGPRX4 (Q96LA9 whole entry): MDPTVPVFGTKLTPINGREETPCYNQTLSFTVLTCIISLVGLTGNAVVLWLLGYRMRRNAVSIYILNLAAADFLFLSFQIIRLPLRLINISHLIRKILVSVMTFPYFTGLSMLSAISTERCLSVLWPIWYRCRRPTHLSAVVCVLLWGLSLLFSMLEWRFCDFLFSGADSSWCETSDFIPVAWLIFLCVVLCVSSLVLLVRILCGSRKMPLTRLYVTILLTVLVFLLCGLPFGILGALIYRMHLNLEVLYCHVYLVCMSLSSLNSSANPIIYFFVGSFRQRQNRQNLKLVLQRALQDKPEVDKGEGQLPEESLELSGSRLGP

In the case of `CC[C@H]1[C@@H](O)[C@@H]2[C@H](CC[C@]3(C)[C@@H]([C@H](C)CCNC(=O)NS(=O)(=O)C4CCCCC4)CC[C@@H]23)[C@@]2(C)CCCC[C@@H]12` [5-3], the “Efficacy (maximum measured induction of NanoLuc, normalized to CDCA set as 100%)” value at human FXR (NR1H4) is on record as “C (100%<efficacy <=300%)”. For the same compound, the EC50 – broadly, the concentration giving half of the maximal effect – at human FXR (NR1H4) was 1 to 10 µM; on MRGPRX4, over 100 µM. The “MRGPRX4 activation, fluorescence change (dF/F0), Average” value (from here on “MRGPRX4 activation, fluorescence change”) is 0.297 on MRGPRX4 (Conc. (Log[M]) −4); 0.031 at MRGPRX4 (Conc. (Log[M]) −4.5); 0.001 on MRGPRX4 (Conc. (Log[M]) −5); −0.012 at MRGPRX4 (Conc. (Log[M]) −5.5); −0.033 on MRGPRX4 (Conc. (Log[M]) −6); −0.011 on MRGPRX4 (Conc. (Log[M]) −7). For the same compound, the “MRGPRX4 activation, fluorescence change” value at MRGPRX4 (Conc. (Log[M]) −8) is listed as −0.012; at MRGPRX4 (Conc. (Log[M]) −9), 0.002.

Turning to `CC[C@H]1[C@@H](O)[C@@H]2[C@H](CC[C@]3(C)[C@@H]([C@H](C)CCNC(=O)NS(=O)(=O)c4ccc5c(c4)CCN5C(C)=O)CC[C@@H]23)[C@@]2(C)CCCC[C@@H]12` [5-4], on human FXR (NR1H4), the “Efficacy (maximum measured induction of NanoLuc, normalized to CDCA set as 100%)” value was “B (300%<efficacy <=400%)”. Moreover, the EC50 on human FXR (NR1H4) is under 1 µM; at MRGPRX4, over 100 µM. The “MRGPRX4 activation, fluorescence change” value on MRGPRX4 (Conc. (Log[M]) −4) was 0.097; at MRGPRX4 (Conc. (Log[M]) −4.5), 0.017; on MRGPRX4 (Conc. (Log[M]) −5) it was 0.020; on MRGPRX4 (Conc. (Log[M]) −5.5), 0.020; on MRGPRX4 (Conc. (Log[M]) −6) it was 0.013; at MRGPRX4 (Conc. (Log[M]) −7), 0.017.

For `CC[C@H]1[C@@H](O)[C@@H]2[C@H](CC[C@]3(C)[C@@H]([C@H](C)CCNC(=O)NS(=O)(=O)C4CCC(C)(C)CC4)CC[C@@H]23)[C@@]2(C)CCCC[C@@H]12` [5-5], the “Efficacy (maximum measured induction of NanoLuc, normalized to CDCA set as 100%)” value at human FXR (NR1H4) was “C (100%<efficacy <=300%)”. Besides, the results for the EC50 at human FXR (NR1H4) and at MRGPRX4 were under 1 µM and over 100 µM, respectively. In addition, the “MRGPRX4 activation, fluorescence change” value on MRGPRX4 (Conc. (Log[M]) −4) turned out to be 0.083; at MRGPRX4 (Conc. (Log[M]) −4.5), 0.033; at MRGPRX4 (Conc. (Log[M]) −5), 0.017; at MRGPRX4 (Conc. (Log[M]) −5.5), 0.020; at MRGPRX4 (Conc. (Log[M]) −6), 0.027; on MRGPRX4 (Conc. (Log[M]) −7), 0.060.

For the compound `CC[C@H]1[C@@H](O)[C@@H]2[C@H](CC[C@]3(C)[C@@H]([C@H](C)CCNC(=O)NS(=O)(=O)c4ccc5c(c4)OCO5)CC[C@@H]23)[C@@]2(C)CCCC[C@@H]12` [5-6], the “Efficacy (maximum measured induction of NanoLuc, normalized to CDCA set as 100%)” value on human FXR (NR1H4) is given as “C (100%<efficacy <=300%)”. The EC50 on human FXR (NR1H4) was under 1 µM; on MRGPRX4, over 100 µM. The “MRGPRX4 activation, fluorescence change” value at MRGPRX4 (Conc. (Log[M]) −4) was determined as 0.077; at MRGPRX4 (Conc. (Log[M]) −4.5), 0.033; on MRGPRX4 (Conc. (Log[M]) −5), 0.010; at MRGPRX4 (Conc. (Log[M]) −5.5), 0.017; at MRGPRX4 (Conc. (Log[M]) −6) it was 0.013; on MRGPRX4 (Conc. (Log[M]) −7), 0.010.

On to `CC[C@H]1[C@@H](O)[C@@H]2[C@H](CC[C@]3(C)[C@@H]([C@H](C)CCNC(=O)NS(=O)(=O)c4cccc(Cl)c4)CC[C@@H]23)[C@@]2(C)CCCC[C@@H]12` [5-7], for which the “Efficacy (maximum measured induction of NanoLuc, normalized to CDCA set as 100%)” value at human FXR (NR1H4) is given as “B (300%<efficacy <=400%)”. Further, the results for the EC50 at human FXR (NR1H4) and at MRGPRX4 were under 1 µM and over 100 µM, respectively. In addition, the “MRGPRX4 activation, fluorescence change” value on MRGPRX4 (Conc. (Log[M]) −4) is 0.070; on MRGPRX4 (Conc. (Log[M]) −4.5), 0.027; on MRGPRX4 (Conc. (Log[M]) −5), 0.030; at MRGPRX4 (Conc. (Log[M]) −5.5), 0.020; on MRGPRX4 (Conc. (Log[M]) −6) it was 0.020; at MRGPRX4 (Conc. (Log[M]) −7), 0.017.

On to `CC[C@H]1[C@@H](O)[C@@H]2[C@H](CC[C@]3(C)[C@@H]([C@H](C)CCNC(=O)NS(=O)(=O)c4ccc(C)cc4)CC[C@@H]23)[C@@]2(C)CCCC[C@@H]12` [5-8], for which the “Efficacy (maximum measured induction of NanoLuc, normalized to CDCA set as 100%)” value on human FXR (NR1H4) was “C (100%<efficacy <=300%)”. Also, the values for the EC50 on human FXR (NR1H4) and on MRGPRX4 were under 1 µM and over 100 µM, respectively. In addition, the “MRGPRX4 activation, fluorescence change” value is 0.073 on MRGPRX4 (Conc. (Log[M]) −4); 0.037 at MRGPRX4 (Conc. (Log[M]) −4.5); 0.023 at MRGPRX4 (Conc. (Log[M]) −5); 0.017 at MRGPRX4 (Conc. (Log[M]) −5.5); 0.020 on MRGPRX4 (Conc. (Log[M]) −6); 0.023 on MRGPRX4 (Conc. (Log[M]) −7).

In the case of `CC[C@H]1[C@@H](O)[C@@H]2[C@H](CC[C@]3(C)[C@@H]([C@H](C)CCNC(=O)NS(=O)(=O)c4ccc(C(C)(C)C(=O)O)cc4)CC[C@@H]23)[C@@]2(C)CCCC[C@@H]12` [5-10], the “Efficacy (maximum measured induction of NanoLuc, normalized to CDCA set as 100%)” value on human FXR (NR1H4) was “C (100%<efficacy <=300%)”. Further, the results for the EC50 on human FXR (NR1H4) and at MRGPRX4 were under 1 µM and over 100 µM, respectively. Also, the “MRGPRX4 activation, fluorescence change” value is on record as 0.090 at MRGPRX4 (Conc. (Log[M]) −4); 0.043 at MRGPRX4 (Conc. (Log[M]) −4.5); 0.013 on MRGPRX4 (Conc. (Log[M]) −5); 0.017 at MRGPRX4 (Conc. (Log[M]) −5.5); 0.020 at MRGPRX4 (Conc. (Log[M]) −6); 0.030 on MRGPRX4 (Conc. (Log[M]) −7).

For the compound `CC[C@H]1[C@@H](O)[C@@H]2[C@H](CC[C@]3(C)[C@@H]([C@H](C)CCNC(=O)NS(=O)(=O)N4CCCC4)CC[C@@H]23)[C@@]2(C)CCCC[C@@H]12` [5-11], the “Efficacy (maximum measured induction of NanoLuc, normalized to CDCA set as 100%)” value at human FXR (NR1H4) is reported as “C (100%<efficacy <=300%)”. Moreover, the EC50 at human FXR (NR1H4) is 1 to 10 µM; at MRGPRX4 it was over 100 µM. In addition, the “MRGPRX4 activation, fluorescence change” value at MRGPRX4 (Conc. (Log[M]) −4) came to 0.057; on MRGPRX4 (Conc. (Log[M]) −4.5), 0.030; at MRGPRX4 (Conc. (Log[M]) −5) it was 0.033; at MRGPRX4 (Conc. (Log[M]) −5.5), 0.013; on MRGPRX4 (Conc. (Log[M]) −6), 0.023; at MRGPRX4 (Conc. (Log[M]) −7), 0.067.

For `CC[C@H]1[C@@H](O)[C@@H]2[C@H](CC[C@]3(C)[C@@H]([C@H](C)CCNC(=O)NS(=O)(=O)N4CC5CC5C4)CC[C@@H]23)[C@@]2(C)CCCC[C@@H]12` (some centres unmarked) [5-12], at human FXR (NR1H4), the “Efficacy (maximum measured induction of NanoLuc, normalized to CDCA set as 100%)” value is “C (100%<efficacy <=300%)”. The values for the half-maximal effective concentration (EC50) on human FXR (NR1H4) and on MRGPRX4 were 1 to 10 µM and over 100 µM, respectively. Also, the “MRGPRX4 activation, Average” value on MRGPRX4 (setting [1]) worked out at 0.057; on MRGPRX4 (setting [2]), 0.023; on MRGPRX4 (setting [3]), 0.013; on MRGPRX4 (setting [4]) it was 0.013.

On to `CC[C@H]1[C@@H](O)[C@@H]2[C@H](CC[C@]3(C)[C@@H]([C@H](C)CCNC(=O)NS(=O)(=O)Cc4ccccc4)CC[C@@H]23)[C@@]2(C)CCCC[C@@H]12` [5-13], for which the “Efficacy (maximum measured induction of NanoLuc, normalized to CDCA set as 100%)” value on human FXR (NR1H4) is listed as “C (100%<efficacy <=300%)”. Besides, the figures for the EC50 on human FXR (NR1H4) and at MRGPRX4 were under 1 µM and over 100 µM, respectively. Further, the “MRGPRX4 activation, Average” value at MRGPRX4 (setting [1]) was found to be 0.060; at MRGPRX4 (setting [2]), 0.030; on MRGPRX4 (setting [3]), 0.027; at MRGPRX4 (setting [4]) it was 0.017.

Take `CCCCS(=O)(=O)NC(=O)NCC[C@@H](C)[C@H]1CC[C@H]2[C@@H]3[C@H](O)[C@H](CC)[C@@H]4CCCC[C@]4(C)[C@H]3CC[C@]12C` [5-14]: the “Efficacy (maximum measured induction of NanoLuc, normalized to CDCA set as 100%)” value on human FXR (NR1H4) was “C (100%<efficacy <=300%)”. In addition, the figures for the EC50 on human FXR (NR1H4) and at MRGPRX4 were under 1 µM and over 100 µM, respectively. Further, the “MRGPRX4 activation, Average” value came out at 0.070 on MRGPRX4 (setting [1]), 0.017 at MRGPRX4 (setting [2]), 0.017 at MRGPRX4 (setting [3]) and 0.017 on MRGPRX4 (setting [4]).
